Laboratory results reported in patent publication US7888285B2, “2,4,6-phenyl substituted cyclic ketoenols” (Bayer CropScience AG, priority 2003, dated 2011).

How the values were obtained:
Assay type in all cases: in vivo
Abultilon [1] = test: Post-emergence test; settings: greenhouse, 250 g a.i./ha, scored after three weeks
Procedure: (§1) To prepare a suitable active compound preparation, 1 part by weight of active compound is mixed with the stated amount of solvent, the stated amount of emulsifier is added, and the concentrate is diluted with water to the desired concentration.
(§2) Test plants with a height of 5-15 cm are sprayed with the active compound preparation in such a way that the amounts of active compound desired in each case are applied per unit area. The concentration of the spray mixture is chosen in such a way that the amounts of active compound desired in each case are applied in 1 000 1 of water/ha.
(§3) After three weeks, the degree of damage of the plants is scored in % damage in comparison with the development of the untreated control.
(§4) The figures denote: • 0% =no effect (like untreated control) • 100% =total destruction

Alopecurus [2] = test: Post-emergence test; settings: greenhouse, 250 g a.i./ha, scored after three weeks
Procedure: as §1, §2, §3, §4

Avena fatua [3] = test: Post-emergence test; settings: greenhouse, 250 g a.i./ha, scored after three weeks
Procedure: as §1, §2, §3, §4

Echinochloa [4] = test: Post-emergence test; settings: greenhouse, 250 g a.i./ha, scored after three weeks
Procedure: as §1, §2, §3, §4

Setaria [5] = test: Post-emergence test; settings: greenhouse, 250 g a.i./ha, scored after three weeks
Procedure: as §1, §2, §3, §4

Sinapis [6] = test: Post-emergence test; settings: greenhouse, 250 g a.i./ha, scored after three weeks
Procedure: as §1, §2, §3, §4

sugar beet [7] = test: Post-emergence test; settings: greenhouse, 250 g a.i./ha, scored after three weeks
Procedure: as §1, §2, §3, §4

Abultilon [8] = test: Pre-emergence test; settings: greenhouse, 250 g a.i./ha, scored after three weeks
Procedure: (§5) [table] To prepare a suitable active compound preparation, 1 part by weight of active compound is mixed with the stated amount of solvent, the stated amount of emulsifier is added, and the concentrate is diluted with water to the desired concentration. Seeds of the test plant are sown in normal soil. After approximately 24 hours, the soil is sprayed with the active compound preparation in such a way that the amounts of active compound desired in each case are applied per unit area. The concentration of the spray mixture is chosen in such a way that the amounts of active compound desired in each case are applied in 1 000 1 of water/ha. After three weeks, the degree of damage of the plants is scored in % damage in comparison with the development of the untreated control.

Alopecurus [9] = test: Pre-emergence test; settings: greenhouse, scored after three weeks
Procedure: as §5

Avena fatua [10] = test: Pre-emergence test; settings: greenhouse, 250 g a.i./ha, scored after three weeks
Procedure: as §5

Echinochloa [11] = test: Pre-emergence test; settings: greenhouse, 250 g a.i./ha, scored after three weeks
Procedure: as §5

Setaria [12] = test: Pre-emergence test; settings: greenhouse, scored after three weeks
Procedure: as §5

Sinapis [13] = test: Pre-emergence test; settings: greenhouse, 250 g a.i./ha, scored after three weeks
Procedure: as §5

Meloidogyne incognita = test: Meloidogyne test; settings: 20 ppm, with reference to gall formation
Procedure: (§6) To prepare a suitable active compound preparation, 1 part by weight of active compound is mixed with the stated amounts of solvent and emulsifier and the concentrate is diluted with water to the desired concentration.
Containers are filled with sand, active compound solution, Meloidogyne incognita egg/larval suspension and lettuce seeds. The lettuce seeds germinate and the plantlets develop. The galls develop on the roots.
After the desired time, the nematicidal efficacy is determined I n % with reference to gall formation. 100% means that no galls were found; 0% means that the number of galls on the treated plants corresponds to that of the untreated control.

[14] = system: green peach aphid (Myzus persicae); test: Myzus test; settings: 1000 ppm
Procedure: To prepare a suitable active compound preparation, 1 part by weight of active compound is mixed with the stated amounts of solvent and emulsifier and the concentrate is diluted with emulsifier-containing water to the desired concentration.
Cabbage leaves (Brassica oleracea), which are severely infested with the green peach aphid (Myzus persicae) are treated by immersing them into the active compound preparation of the desired concentration.
After the desired time, the destruction rate is determined in %. 100% means that all of the aphids have been destroyed; 0% means that none of the aphids have been destroyed.

[15] = system: larvae of the mustard beetle (Phaedon cochleariae); test: Phaedon larvae test; settings: 1000 ppm
Procedure: [table] To produce a suitable preparation of active compound, 1 part by weight of active compound is mixed with the stated amounts of solvent and emulsifier, and the concentrate is diluted with emulsifier-containing water to the desired concentration. Cabbage leaves (Brassica oleracea) are treated by being dipped into the preparation of active compound of the desired concentration and are infested with the larvae of the mustard beetle (Phaedon cochleariae) while the leaves are still moist.

[16] = system: greenhouse red spider mite (Tetranychus urticae); test: Tetranychus test (OP-resistant/immersion treatment)
Procedure: (§7) To produce a suitable preparation of active compound, 1 part by weight of active compound is mixed with the stated amounts of solvent and emulsifier, and the concentrate is diluted with emulsifier-containing water to the desired concentration.
Bean plants (Phaseolus vulgaris) which are severely infested with all stages of the greenhouse red spider mite (Tetranychus urticae) are dipped into a preparation of the active compound of the desired concentration.
After the desired time, the activity in % is determined. 100% means that all the spider mites have been killed; 0% means that none of the spider mites have been killed.

Cassia = test: Pre-emergence test; settings: greenhouse, 125 g a.i./ha, scored after three weeks
Procedure: as §5

Lolium = test: Pre-emergence test; settings: greenhouse, 125 g a.i./ha, scored after three weeks
Procedure: as §5

Matricaria = test: Pre-emergence test; settings: greenhouse, 125 g a.i./ha, scored after three weeks
Procedure: as §5

Viola = test: Pre-emergence test; settings: greenhouse, 125 g a.i./ha, scored after three weeks
Procedure: as §5

sugar beet [17] = test: Pre-emergence test; settings: greenhouse, 125 g a.i./ha, scored after three weeks
Procedure: as §5

[18] = system: black bean aphids (Aphis fabae); test: Aphis test, contact action; settings: 1000 ppm
Procedure: as §6
Shoots of young field bean plants (Vicia faba) which are severely infested with black bean aphids (Aphis fabae) are treated by being dipped into the active compound preparation of the desired concentration.
After the desired period of time, the destruction is determined in %. 100% means that all of the aphids have been destroyed; 0% means that no aphids have been destroyed.

[19] = system: green rice leafhopper (Nephotettix cincticeps); test: Nephotettix test; settings: 1000 ppm
Procedure: To produce a suitable preparation of active compound, 1 part
by weight of active compound is mixed with the stated amounts of solvent and emulsifier, and the concentrate is diluted with emulsifier-containing water to the desired concentration.
Rice seedlings (Oryza sativa) are treated by being dipped into the preparation of active compound of the desired concentration and are infested with the green rice leafhopper (Nephotettix cincticeps) while the leaves are still moist.
After the desired time, the destruction in % is determined. 100% means that all the leafhoppers have been killed; 0% means that none of the leafhoppers have been killed.

[20] = system: caterpillars of the diamond-back moth (Plutella xylostella); test: Plutella test; settings: 1000 ppm
Procedure: as §7
Cabbage leaves (Brassica oleracea) are treated by being dipped into the preparation of active compound of the desired concentration and are infested with caterpillars of the diamond-back moth (Plutella xylostella) while the leaves are still moist.
(§8) After the desired time, the destruction in % is determined. 100% means that all the caterpillars have been killed; 0% means that none of the caterpillars have been killed.

[21] = system: caterpillars of the armyworm (Spodoptera frugiperd); test: Spodoptera frugiperda test; settings: 1000 ppm
Procedure: as §7
Cabbage leaves (Brassica oleracea) are treated by being dipped into the preparation of active compound of the desired concentration and are infested with caterpillars of the armyworm (Spodoptera frugiperd) while the leaves are still moist.
as §8

## CCc1cc(Cl)cc(OC)c1C1=C(O)C2(CCC(OC)CC2)NC1=O (single isomer, unassigned) [Example I-1-a-3]
Abultilon [1]
  degree of damage, Abultilon: 70%
Alopecurus [2]
  degree of damage, Alopecurus: 100%
Avena fatua [3]
  degree of damage, Avena fatua: 100%
Echinochloa [4]
  degree of damage, Echinochloa: 100%
Setaria [5]
  degree of damage, Setaria: 100%
Sinapis [6]
  degree of damage, Sinapis: 80%
Sugar beet [7]
  degree of damage, sugar beet: 0%
Abultilon [8]
  degree of damage, Abultilon: 80%
Alopecurus [9]; 250 g a.i./ha
  degree of damage, Alopecurus: 80%
Avena fatua [10]
  degree of damage, Avena fatua: 100%
Echinochloa [11]
  degree of damage, Echinochloa: 100%
Setaria [12]; 250 g a.i./ha
  degree of damage, Setaria: 100%
Sinapis [13]
  degree of damage, Sinapis: 80%
Meloidogyne incognita
  Destruction in % after 14 d: 98%
[14]
  Destruction in % after 6 d: 90%
[15]
  Destruction in % after 7 d: 80%
[16]; 100 ppm
  Destruction in % after 7 d: 80%

## COc1cc(Cl)cc(C)c1C1=C(O)C2(CCC(C)CC2)NC1=O (centres unmarked) [Example I-1-a-1]
Alopecurus [2]
  degree of damage, Alopecurus: 100%
Avena fatua [3]
  degree of damage, Avena fatua: 100%
Setaria [5]
  degree of damage, Setaria: 100%
Sugar beet [7]
  degree of damage, sugar beet: 0%
Alopecurus [9]; 125 g a.i./ha
  degree of damage, Alopecurus: 100%
Cassia
  degree of damage, Cassia: 100%
Lolium
  degree of damage, Lolium: 100%
Matricaria
  degree of damage, Matricaria: 90%
Setaria [12]; 125 g a.i./ha
  degree of damage, Setaria: 100%
Viola
  degree of damage, Viola: 90%
Sugar beet [17]
  degree of damage, sugar beet: 0%
[18]
  Destruction in % after 6 d: 100%
[14]
  Destruction in % after 6 d: 95%
[19]
  Destruction in % after 6 d: 100%
[15]
  Destruction in % after 7 d: 100%
[20]
  Destruction in % after 7 d: 100%
[21]
  Destruction in % after 7 d: 100%
[16]; 1000 ppm
  Destruction in % after 7 d: 100%
